Reference: patent US20200323991A1, “PBD CONJUGATES FOR TREATING DISEASES” (ENDOCYTE, INC., priority 2016, published 2020)
Read-outs that look alike come from different tables or passages of the source.

Key:
[1] = test system: KB tumor; assay: Antitumor activity in large KB tumor model; type: in vivo, mice; settings: 0.5 μmol/kg, once a week for two weeks
Method: Female Balb/c nu/nu mice were fed ad libitum with folate-deficient chow (Harlan diet #TD01013) for the duration of the experiment. KB tumor cells were inoculated subcutaneously at the right flank of each mouse. Mice were dosed after the tumors reached an average of 100 and 180 mm^3 through the lateral tail vein under sterile conditions in a volume of […] of phosphate-buffered saline (PBS).
(§1) Growth of each s.c. tumor was followed by measuring the tumor two times per week. Tumors were measured in two perpendicular directions using Vernier calipers, and their volumes were calculated as 0.5×L×W^2, where L=measurement of longest axis in mm and W=measurement of axis perpendicular to L in mm.

[2] = Toxicity in KB tumor bearing mice; type: in vivo; settings: 0.5 μmol/kg, once a week for two weeks
Method: The percentage weight change of the test animals was determined on selected days post-tumor inoculation (PTI), and during dosing. The results were graphed.

[3] = test system: TNBC PDX tumor; assay: In vivo activity against triple negative breast tumors (FIG. 38); parameters: species or system mice; settings: 1.0 μmol/kg SIW for two weeks
Method: (§2) Mice were maintained and tumor volumes were measures according to Method 3.
(§3) Primary human TNBC model ST502 (2-4 mm in diameter) or primary human TNBC model ST738 (2-4 mm in diameter) were inoculated subcutaneously at the right flank of each mouse. Mice were randomized into experimental groups of 7 mice each and test articles were injected through the lateral tail vein under sterile conditions in a volume of 200 μL of phosphate-buffered saline (PBS).

[4] = test system: KB cells; type: cell-based, human; settings: read-out: IC50 value, 3H-thymidine incorporation
Method: The conjugates described herein were evaluated using an in vitro cytotoxicity assay that predicted the ability of the drug to inhibit the growth of the corresponding targeted cells, such as, but not limited to the following
It is to be understood that the choice of cell type can be made on the basis of the susceptibility of those selected cells to the drug that forms the conjugate, and the relative expression of the cell surface receptor or target antigen. The test conjugates were conjugates of a cell surface receptor or target antigen binding compound and PBD prodrugs, poly-PBD prodrugs, and mixed PBDs, as described herein. The test cells were exposed to varying concentrations of the conjugates, and optionally also in the absence or presence of at least a 100-fold excess of the unconjugated cell surface receptor or target antigen binding compound for competition studies to assess activity as being specific to the cell surface receptor or target antigen.
KB cells were seeded in individual 24-well Falcon plates and allowed to form nearly confluent monolayers overnight in folate free Roswell Park Memorial Institute (FFRPMI)/Heat-Inactivated Fetal Calf Serum (HIFCS). Thirty minutes prior to the addition of folate-conjugate, spent medium was aspirated from all wells and replaced with either fresh FFRPMI or FFRPMI supplemented with 100 μM folic acid. […] Cells were pulsed for 2 h at 37° C., rinsed 4 times with 0.5 mL of medium and then chased in 1 mL of fresh medium up to 72 h. Spent medium was aspirated from all wells and replaced with fresh medium containing 5 μCi/mL of ^3H-thymidine. Following a 2 h incubation at 37° C., cells were washed 3 times with 0.5 mL of PBS and then treated with 0.5 mL of ice-cold 5% trichloroacetic acid per well. After 15 min, the trichloroacetic acid was aspirated and the cells solubilized by the addition of 0.5 mL of 0.25 N sodium hydroxide for 15 min at room temperature. Four hundred and fifty […] of each solubilized sample were transferred to scintillation vials containing 3 mL of Ecolume scintillation cocktail and counted in a liquid scintillation counter. Final results were expressed as the percentage of ^3H-thymidine incorporation relative to untreated controls.

[5] = test system: Endometrial PDX tumor (ST040); assay: In vivo activity against endometrial tumors, ST040; parameters: species or system mice; settings: 15 mg/kg SIW for two weeks
Method: Female Balb/c nu/nu mice were fed ad libitum with folate-deficient chow (Harlan diet #TD01013) for the duration of the experiment. Primary human Endometrial model ST040 fragments (2-4 mm in diameter) were inoculated subcutaneously at the right flank of each mouse. Mice were randomized into experimental groups of 7 mice each and test articles were injected through the lateral tail vein under sterile conditions in a volume of 200 μL of phosphate-buffered saline (PBS). These studies were performed at South Texas Accelerated Research Therapeutics, 4383 Medical Drive, San Antonio, Tex. 78229.
as §1, with “week until a volume of 1200 mm^3 was reached.” for “week.”

[6] = test system: ST070 ovarian PDX tumors; assay: In vivo activity against ovarian tumors, ST070; parameters: species or system mice; settings: 15.0 mg/kg SIW for two weeks
Method: as §2
as §3, with “Ovarian” for “TNBC”, “ST070 fragments” for “ST502 (2-4 mm in diameter) or primary human TNBC model ST738”

[7] = test system: MDA-MB231 cells; assay: 3H-thymidine incorporation in MDA-MB231 cells; type: cell-based, human; settings: MDA-MB-231 cells, 100 μM folic acid
Method: MDA-MB231 (human breast cancer) cells were seeded in 12-well Falcon plates and allowed to form nearly confluent monolayers overnight in FFRPMI/HIFCS. Designated wells received medium containing 100μM folic acid (nontoxic FR blocker) and were used to determine the targeting specificity. Each well then received increasing concentrations of Conjugate 1 (n=4). Cells were pulsed for 2 h at 37° C., rinsed with medium, and then chased in fresh medium up to 72 h. Spent medium was aspirated and replaced with medium containing [3H]thymidine. Following a 2 h incubation, cells were washed with PBS and then treated with 5% trichloroacetic acid. The trichloroacetic acid was aspirated and cells were solubilized in 0.25 N sodium hydroxide. Each solubilized sample were transferred to scintillation vials containing Ecolume scintillation cocktail and counted in a liquid scintillation counter. Final results were expressed as the percentage of [3H]thymidine incorporation relative to untreated controls and IC50 were values calculated using GraphPad Prism software.

[8] = test system: Calf thymus DNA (CT-DNA); assay: DNA crosslinking assay (ethidium bromide fluorescence); type: biochemical
Method: (§4) Calf thymus DNA (CT-DNA) was combined with increasing concentrations of Conjugate 1 (0.14 to 33.3 pM) or Conjugate 1+/− DTT. CT-DNA+Melphalan was used as a positive control and CT-DNA+DMSO was used as a negative control. These solutions were incubated at 37° C. for 2 hours. The solutions were then mixed with ethidium bromide and incubated for 2 hours at room temperature. Fluorescence (Ex: 535 nm, Em: 605 nm) from these samples was measured on the Fluoroskan II fluorimeter. Next, the samples were heated to 104° C. for 5 minutes, cooled on ice for 5 minutes, kept at RT for 15 minutes and fluorescence measured. % crosslinking of each sample was calculated using the fluorescence values from the positive and negative controls.
as §4, with “5 (1.1” for “1 (0.14”, “75” for “33.3”, “5+/−” for “1+/−”, “DTT.” for “DTT. CT-DNA+Melphalan was used as a positive control and CT-DNA+DMSO was used as a negative control.”

[9] = target: T1, folate receptor (Homo sapiens, UniProt P15328); assay: Relative affinity assay (displacement of [3H]FA bound to FR on KB cells); type: binding; settings: 100 nmol/L [3H]FA, 1 h at 37° C.
T1 construct: endogenous in cells; host or cells: KB cells
Method: FR-positive KB cells were seeded in 24-well Falcon plates and allowed to form adherent monolayers (>90% confluent) overnight in FFRPMI/HIFCS. Spent incubation medium was replaced with FFRPMI supplemented with 10% HIFCS and containing 100 nmol/L of [^3H]FA in the absence and presence of increasing concentrations of unlabeled FA or the test conjugate. Cells were incubated for 1 h at 37° C. and then rinsed thrice with 0.5 mL PBS. Five hundred microliters of 1% SDS in PBS were added to each well; after 5 min, cell lysates were collected, transferred to individual vials containing 5 mL of scintillation cocktail, and then counted for radioactivity.
Cells exposed to only the [3H]FA in FFRPMI (no competitor) were designated as negative controls, whereas cells exposed to the [3H]FA plus 1 mmol/L unlabeled FA served as positive controls. Disintegrations per minute (DPM) measured in the latter samples (representing nonspecific binding of label) were subtracted from the DPM values from all samples.

[10] = with excess folate (100 μM folic acid)
[11] = without excess folate, 2 h pulse, chase up to 72 h

T1 sequence (P15328 25-234): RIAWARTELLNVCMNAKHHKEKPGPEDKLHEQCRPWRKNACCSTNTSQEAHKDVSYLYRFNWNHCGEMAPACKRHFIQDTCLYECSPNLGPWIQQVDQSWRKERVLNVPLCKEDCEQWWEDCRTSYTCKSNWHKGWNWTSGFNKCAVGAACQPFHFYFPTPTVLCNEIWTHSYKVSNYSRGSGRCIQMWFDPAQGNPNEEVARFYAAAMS

| Molecule | day on which mice had to be euthanized due to toxicity [2] [days] | IC50 [4, 10] [nM] | IC50 [4, 11] [nM] | complete responses [1] [%] | cures [1] [%] | other results |
| --- | --- | --- | --- | --- | --- | --- |
| C=C1C[C@H]2C=Nc3cc(OCCCCCOc4cc(N)c(C(=O)N5CC(=C)C[C@H]5C5CCCN5C(=O)OC[C@@H](SSC[C@H](NC(=O)[C@H](CC(=O)O)NC(=O)[C@H](CC(=O)O)NC(=O)[C@H](CCCNC(=N)N)NC(=O)[C@H](CC(=O)O)NC(=O)CC[C@H](NC(=O)c5ccc(NCc6cnc7nc(N)[nH]c(=O)c7n6)cc5)C(=O)O)C(=O)O)C(C)C)cc4OC)c(OC)cc3C(=O)N2C1 (stereo partly drawn) [Conjugate 12] | 40 | – | – | – | – | PRs (partial responses) [1]: 100% |
| erubulin mesylate | – | – | – | – | – | TNBC PDX tumor size compared to untreated control [3]: did not decrease TNBC PDX tumor size |
| C=C1C[C@H]2C=Nc3cc(OCCCCCOc4cc5c(cc4OC)C(=O)N4CC(=C)C[C@H]4[C@H](O)N5C(=O)OCCSSC[C@H](NC(=O)[C@H](CC(=O)O)NC(=O)[C@H](CC(=O)O)NC(=O)[C@H](CCCNC(=N)N)NC(=O)[C@H](CC(=O)O)NC(=O)CC[C@H](NC(=O)c4ccc(NCc5cnc6nc(N)[nH]c(=O)c6n5)cc4)C(=O)O)C(=O)O)c(OC)cc3C(=O)N2C1 [Conjugate 3] | 48 | 3 | 0.039 | 100 | – | – |
| CC(=O)O[C@H]1C(=O)[C@@]2(C)[C@H]([C@H](OC(=O)c3ccccc3)[C@]3(O)C[C@H](OC(=O)[C@H](O)[C@@H](NC(=O)c4ccccc4)c4ccccc4)C(C)=C1C3(C)C)[C@]1(OC(C)=O)CO[C@@H]1C[C@@H]2O [paclitaxel] | – | – | – | – | – | partial response subjects [5]: 0%; tumor size compared to untreated control [6]: did not have decreased tumor size |
| C=C1C[C@H]2C=Nc3cc(OCCCCCOc4cc(N)c(C(=O)N5CC(=C)C[C@H]5C5OCCN5C(=O)OCC(C)(C)SSCCC(=O)NCCNC(=O)CCOCCOCCOCCOCCNC(=O)CCN5C(=O)CC(SC[C@@H](NC(=O)[C@H](CCC(=O)NC[C@H](O)[C@@H](O)[C@H](O)[C@H](O)CO)NC(=O)[C@@H](CCC(=O)O)NC(=O)[C@H](CCC(=O)NC[C@H](O)[C@@H](O)[C@H](O)[C@H](O)CO)NC(=O)[C@@H](CCC(=O)O)NC(=O)[C@H](CCC(=O)NC[C@H](O)[C@@H](O)[C@H](O)[C@H](O)CO)NC(=O)CC[C@H](NC(=O)c6ccc(NCc7cnc8nc(N)[nH]c(=O)c8n7)cc6)C(=O)O)C(=O)O)C5=O)cc4OC)c(OC)cc3C(=O)N2C1 (stereo partly drawn) [Conjugate 6] | – | 3 | 0.048 | 50 | 50 | – |
| C=C1C[C@H]2C=Nc3cc(OCCCCCOc4cc5c(cc4OC)C(=O)N4CC(=C)C[C@H]4[C@H](O)N5C(=O)OCC(C)SSC[C@H](NC(=O)[C@H](CC(=O)O)NC(=O)[C@H](CC(=O)O)NC(=O)[C@H](CCCNC(=N)N)NC(=O)[C@H](CC(=O)O)NC(=O)CC[C@H](NC(=O)c4ccc(NCc5cnc6nc(N)[nH]c(=O)c6n5)cc4)C(=O)O)C(=O)O)c(OC)cc3C(=O)N2C1 (stereo partly drawn) [Conjugate 1] | – | – | – | – | 100 | cytotoxic activity in the presence of an excess of free folate [7]: significant reduction in activity; DNA crosslinking by reduced form ([8]; treated with DTT): crosslink with DNA; DNA crosslinking by intact conjugate ([8]; without DTT): not able to crosslink DNA; relative binding affinity toward the folate receptor, fold lower than that of folic acid [9]: ~4.2 fold |
